Experimental data: patent publication US20160184356A1, “ARSENIC-BASED TREATMENT OF CANCERS AND INFLAMMATORY DISORDERS” (STC.UNM, priority 2013, published 2016)
Where two headings read alike, the source gives them in different places.

Assays:
[1] = biological target: T1, XPA (C4) zinc finger peptide (Homo sapiens, UniProt P23025); type: binding
T1 construct: purchased Genemed Synthesis Inc. (San Antonio, Tex.); host or cells: chemical synthesis

[2] = biological target: T2, APTX (C2H2) zinc finger peptide (Homo sapiens, UniProt Q7Z2E3); type: binding
T2 construct: purchased Genemed Synthesis Inc. (San Antonio, Tex.); host or cells: chemical synthesis
T2 sequence (Q7Z2E3 330-356 limits assumed): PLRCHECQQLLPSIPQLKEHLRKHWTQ

PARP-1 protein = biological target: T3, PARP-1 protein (Homo sapiens, UniProt P09874); type: cell-based
T3 construct: APTX, PARP-1, and XPA protein were immunoprecipitated from cell extracts using corresponding antibodies; endogenous in cells; host or cells: HaCaT human keratinocytes
T3 sequence (P09874 whole entry): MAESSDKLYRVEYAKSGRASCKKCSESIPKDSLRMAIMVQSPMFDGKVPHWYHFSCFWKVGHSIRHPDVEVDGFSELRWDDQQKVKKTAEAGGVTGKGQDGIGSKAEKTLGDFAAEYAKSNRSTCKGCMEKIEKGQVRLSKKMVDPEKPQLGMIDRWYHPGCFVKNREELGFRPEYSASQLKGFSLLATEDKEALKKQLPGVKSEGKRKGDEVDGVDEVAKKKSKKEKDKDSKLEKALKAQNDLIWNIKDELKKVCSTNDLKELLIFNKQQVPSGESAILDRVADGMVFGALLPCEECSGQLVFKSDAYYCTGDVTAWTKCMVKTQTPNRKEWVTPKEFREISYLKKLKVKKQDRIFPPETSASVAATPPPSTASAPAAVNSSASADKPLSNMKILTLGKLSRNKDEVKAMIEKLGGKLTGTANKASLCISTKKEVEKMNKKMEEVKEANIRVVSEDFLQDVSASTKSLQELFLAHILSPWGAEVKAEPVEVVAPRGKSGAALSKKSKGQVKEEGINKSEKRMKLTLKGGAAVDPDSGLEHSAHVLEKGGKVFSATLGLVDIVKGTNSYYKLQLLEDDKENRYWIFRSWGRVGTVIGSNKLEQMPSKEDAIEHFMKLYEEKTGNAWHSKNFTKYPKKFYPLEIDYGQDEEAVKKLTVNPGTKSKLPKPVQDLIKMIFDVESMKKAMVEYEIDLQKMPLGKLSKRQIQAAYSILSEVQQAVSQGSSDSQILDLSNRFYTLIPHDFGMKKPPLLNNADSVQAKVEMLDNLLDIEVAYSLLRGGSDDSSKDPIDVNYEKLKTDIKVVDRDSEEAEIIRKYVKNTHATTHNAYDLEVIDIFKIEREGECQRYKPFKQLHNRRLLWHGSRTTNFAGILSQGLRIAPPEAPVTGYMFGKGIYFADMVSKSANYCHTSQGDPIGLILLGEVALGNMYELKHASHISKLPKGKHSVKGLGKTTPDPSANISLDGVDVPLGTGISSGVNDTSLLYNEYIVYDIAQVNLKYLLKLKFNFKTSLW

APTX protein = biological target: T4, APTX protein (Homo sapiens, UniProt Q7Z2E3); type: cell-based
T4 construct: APTX, PARP-1, and XPA protein were immunoprecipitated from cell extracts using corresponding antibodies; endogenous in cells; host or cells: HaCaT human keratinocytes
T4 sequence (Q7Z2E3 whole entry): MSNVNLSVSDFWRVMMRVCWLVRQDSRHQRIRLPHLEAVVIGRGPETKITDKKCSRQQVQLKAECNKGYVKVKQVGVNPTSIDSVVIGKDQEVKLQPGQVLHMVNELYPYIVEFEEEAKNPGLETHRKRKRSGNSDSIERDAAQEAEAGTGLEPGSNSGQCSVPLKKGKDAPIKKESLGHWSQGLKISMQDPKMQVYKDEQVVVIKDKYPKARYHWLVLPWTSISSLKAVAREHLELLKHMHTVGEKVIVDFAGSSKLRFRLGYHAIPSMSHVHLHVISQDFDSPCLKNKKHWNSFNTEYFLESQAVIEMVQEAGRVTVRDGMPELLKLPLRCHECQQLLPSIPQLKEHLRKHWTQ

[3] = biological target: T2, APTX (C2H2) zinc finger peptide; type: binding; remark: listed apart in the source
[4] = biological target: T5, PARP-1 (C3H1) zinc finger peptide (Homo sapiens, UniProt P09874, DEL32-46); type: binding
T5 construct: purchased Genemed Synthesis Inc. (San Antonio, Tex.); host or cells: chemical synthesis
T5 sequence (P09874 with tags, fused parts or gaps DEL32-46 limits assumed): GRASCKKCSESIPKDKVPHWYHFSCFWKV

[5] = biological target: T1, XPA (C4) zinc finger peptide; type: binding; remark: listed apart in the source
[6] = biological target: T1, XPA (C4) zinc finger peptide; type: binding; remark: listed apart in the source
[7] = biological target: T5, PARP-1 (C3H1) zinc finger peptide; type: binding; remark: listed apart in the source
[8] = biological target: T1, XPA (C4) zinc finger peptide; type: binding; remark: listed apart in the source
[9] = biological target: T5, PARP-1 (C3H1) zinc finger peptide; type: binding; remark: listed apart in the source
[10] = biological target: T2, APTX (C2H2) zinc finger peptide; type: binding; remark: listed apart in the source
PARP [11] = biological target: T6, PARP (Homo sapiens, UniProt P09874); design: host or cells: urothelial cells; settings: 1 µM; cited from earlier work
Target sequence in this assay (P09874 2-1014 limits assumed): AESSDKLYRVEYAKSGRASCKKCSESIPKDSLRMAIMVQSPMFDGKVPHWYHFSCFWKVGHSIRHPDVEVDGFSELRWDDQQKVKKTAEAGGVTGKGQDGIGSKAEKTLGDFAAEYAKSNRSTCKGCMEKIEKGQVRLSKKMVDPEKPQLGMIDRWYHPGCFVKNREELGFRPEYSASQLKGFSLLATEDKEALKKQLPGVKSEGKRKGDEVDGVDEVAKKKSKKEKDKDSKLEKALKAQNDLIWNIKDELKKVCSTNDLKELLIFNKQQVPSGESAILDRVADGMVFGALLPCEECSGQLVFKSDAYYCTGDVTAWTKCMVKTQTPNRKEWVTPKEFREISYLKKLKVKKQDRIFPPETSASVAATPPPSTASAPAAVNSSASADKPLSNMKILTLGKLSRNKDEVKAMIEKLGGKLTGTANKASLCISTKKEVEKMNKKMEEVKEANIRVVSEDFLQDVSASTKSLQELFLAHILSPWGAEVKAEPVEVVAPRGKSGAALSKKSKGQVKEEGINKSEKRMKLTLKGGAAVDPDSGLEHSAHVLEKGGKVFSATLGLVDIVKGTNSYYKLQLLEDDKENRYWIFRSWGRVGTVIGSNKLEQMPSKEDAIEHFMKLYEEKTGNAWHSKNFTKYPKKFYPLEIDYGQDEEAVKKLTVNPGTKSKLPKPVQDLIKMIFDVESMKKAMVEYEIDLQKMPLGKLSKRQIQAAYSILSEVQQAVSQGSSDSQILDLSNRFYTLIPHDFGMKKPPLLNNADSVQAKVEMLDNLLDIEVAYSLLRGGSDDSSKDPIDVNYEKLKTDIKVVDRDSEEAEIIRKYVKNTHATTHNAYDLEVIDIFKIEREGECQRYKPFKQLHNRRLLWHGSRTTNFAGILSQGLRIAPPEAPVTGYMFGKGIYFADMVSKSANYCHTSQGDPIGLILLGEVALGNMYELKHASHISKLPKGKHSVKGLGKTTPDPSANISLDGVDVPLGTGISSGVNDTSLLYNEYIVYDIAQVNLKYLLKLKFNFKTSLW

XPA protein = biological target: T7, XPA protein (Homo sapiens, UniProt P23025); type: cell-based
T7 construct: APTX, PARP-1, and XPA protein were immunoprecipitated from cell extracts using corresponding antibodies; endogenous in cells; host or cells: HaCaT human keratinocytes
T7 sequence (P23025 whole entry): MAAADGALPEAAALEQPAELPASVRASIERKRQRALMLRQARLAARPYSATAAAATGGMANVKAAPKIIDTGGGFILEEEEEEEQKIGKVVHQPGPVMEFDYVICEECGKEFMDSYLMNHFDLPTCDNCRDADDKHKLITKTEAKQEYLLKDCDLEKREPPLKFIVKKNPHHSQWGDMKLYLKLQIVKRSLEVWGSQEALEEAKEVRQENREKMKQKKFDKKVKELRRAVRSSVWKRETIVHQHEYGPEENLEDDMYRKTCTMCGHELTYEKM

[12] = biological target: T2, APTX (C2H2) zinc finger peptide; type: binding; remark: listed apart in the source
[13] = biological target: T5, PARP-1 (C3H1) zinc finger peptide; type: binding; remark: listed apart in the source
C2H2 complex = settings: cited from earlier work
C3H1 and C4 complexes = settings: cited from earlier work
PARP [14] = biological target: T6, PARP; design: host or cells: human keratinocytes; settings: cited from earlier work
Target sequence in this assay (P09874 2-1014): as the sequence (P09874 2-1014 limits assumed) above

T1 sequence (P23025 101-137 limits assumed): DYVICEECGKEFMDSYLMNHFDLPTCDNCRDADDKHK

Row | Compound | binding to zinc finger peptide by MALDI-TOF mass spectrometry [1] | cobalt binding (absorbance at 660 nm) after incubation with arsenical [2] | zinc content in protein (PARP-1 protein) | zinc content in protein (APTX protein) | tertiary structure change (fluorescent intensity at 350 nm) [3] | tertiary structure change (fluorescent intensity at 350 nm) [4] | tertiary structure change (fluorescent intensity at 350 nm) [5] | cobalt binding (absorbance at 660 nm) after incubation with arsenical [6] | As—S bond formation (A270) [7] | As—S bond formation (A270) [8] | binding to zinc finger peptide by MALDI-TOF mass spectrometry [9] | binding to zinc finger peptide by MALDI-TOF mass spectrometry [10] | PARP activity inhibition (PARP [11]) | zinc content in protein (XPA protein) | As—S bond formation (A270) [12] | cobalt binding (absorbance at 660 nm) after incubation with arsenical [13] | stability of arsenite bound complex in kinetic studies (C2H2 complex) | stability of arsenite bound complex in kinetic studies (C3H1 and C4 complexes) | PARP activity inhibition (PARP [14])
1 | C[As](O)O [MMA(III), monomethylarsonous acid] | bound to the XPA zinc finger | concentration-dependent decrease in cobalt binding to all three peptides | caused zinc loss from all three configurations of zinc finger proteins | caused zinc loss from all three configurations of zinc finger proteins | decreased in a concentration-dependent manner | alters the tertiary structure of all 3 conformations of zinc fingers | alters the tertiary structure of all 3 conformations of zinc fingers | concentration-dependent decrease in cobalt binding to all three peptides | A270 values increased for all three types of zinc fingers | A270 values increased for all three types of zinc fingers | also bound to the PARP-1 zinc finger | bound to APTX zinc finger peptide | about 30% | caused zinc loss from all three configurations of zinc finger proteins | A270 values increased for all three types of zinc fingers | concentration-dependent decrease in cobalt binding to all three peptides |  |  | 
2 | sodium arsenite | bound with PARP-1 and XPA zinc finger peptides |  | selectively displaced zinc from PARP-1 and XPA proteins | selectively displaced zinc from PARP-1 and XPA proteins | showed no effect | selectively disrupted the tertiary structure of C3H1 and C4 zinc fingers | selectively disrupted the tertiary structure of C3H1 and C4 zinc fingers | decreased subsequent cobalt binding in a concentration-dependent manner | A270 values increased in a concentration-dependent manner | A270 values increased in a concentration-dependent manner | bound with PARP-1 and XPA zinc finger peptides | showed no binding to the APTX zinc finger |  | selectively displaced zinc from PARP-1 and XPA proteins |  | decreased subsequent cobalt binding in a concentration-dependent manner | 1.29 min | 155 min | up to 90%
